{
  "source": "patent US20100285959A1",
  "about": "“HERBICIDAL MIXTURES” (priority 2006, published 2010)",
  "key": {"[1]": {"system": "galium (GALAP)", "experiment": "Test 24 growth chamber, postemergence", "format": "in vivo, Galium aparine", "conditions": "17 DAA", "protocol": "(§1) Plants were treated postemergence at the 2-4 leaf growth stage, and each treatment was replicated three times. […] Plants were watered as needed. […] Results for barley and wheat are the means across varieties of the three replicates, and results for the weeds are the means of the three replicates."}, "[2]": {"system": "velvetleaf (ABUTH)", "experiment": "Test 25 field trial, postemergence, growth as percent of control", "format": "in vivo, Abutilon theophrasti", "text": "Corn seeds (hybrid ‘Pioneer 31G96 RR’) were planted in mid spring season, 3.8 cm deep in a clay loam soil having 2% organic matter and a pH of 6.6. Plots were 6.1 m long by 3.0 m wide with rows spaced 76 cm apart. Seeds were spaced 15 cm apart within the rows. The field was managed using conventional tillage practices. […] Giant ragweed and Pennsylvania smartweed could only be evaluated 14 days after application. […] Results are the means of the three replicates. This growth inhibition data was converted to results in the form of “plant growth as a percent of control plant growth” using the calculation “100 minus growth inhibition”.\nWhen this form of Colby's Equation is used, if the observed effects on weeds are less than the expected values, the mixture is synergistic."}, "[3]": {"system": "field poppy (PAPRH)", "experiment": "Test 24 growth chamber, postemergence", "format": "in vivo, Papaver rhoeas", "conditions": "17 DAA", "protocol": "as §1"}, "[4]": {"system": "wild buckwheat (POLCO)", "experiment": "Test 24 growth chamber, postemergence", "format": "in vivo, Polygonum convolvulus", "conditions": "17 DAA", "protocol": "as §1"}, "[5]": {"system": "winter wheat (TRZAW)", "experiment": "Test 27 field trial, postemergence", "format": "in vivo, Triticum aestivum", "set-up": "scale not given here", "text": "Wheat seeds (cv. ‘Custer’) were planted in late fall season in a clay loam soil. Plots were 9 m long by 1.8 m wide. The field was managed using conventional tillage practices. […] All treatments also included a surfactant. […] Results are the means of the three replicates."}, "[6]": {"system": "oak species (QUESS)", "experiment": "Test 13 field trial, postemergence, brush weeds", "format": "in vivo, Quercus L. spp.", "conditions": "56 DAA; g a.i./ha: Cpd 2 250; Fosamine-ammonium 6700", "text": "Plots were established in non-crop land and were 6.1 m long by 3.0 m wide. […] Treatments were applied postemergence to the brush weeds using a backpack sprayer delivering a spray volume of 468 L/ha using a pressure of 241 kPa. […] All treatments also included a surfactant. […] Results are the means of the three replicates."}, "[7]": {"system": "spring wheat (TRZAS)", "experiment": "Test 4 field trial, postemergence", "protocol": "A field trial was conducted to evaluate the effects of mixtures of Compound 2 with commercial herbicides on spring wheat (TRZAS, Triticum aestivum L.) and several weed species. Wheat seeds (cv. ‘AC Intrepid’) were planted in late spring season, 3.8 cm deep in a loam soil having 2.7% organic matter and a pH of 7. Plots were 6 m long by 2.5 m wide. The field was managed using no-till practices. The plots were arranged in a randomized complete block design with each treatment being replicated four times. Treatments were applied postemergence 25 days after planting using a backpack sprayer delivering a spray volume of 55 L/ha using a pressure of 276 kPa. […] Compound 2 and clodinafop treatments, alone and in combination, also included a surfactant. Weed species present in the experimental plots in sufficient quantity to be evaluated included wild oat (AVEFA, Avena fatua L.), common lambsquarters (CHEAL, Chenopodium album L.), kochia (KCHSC, Kochia scoparia (L.) Schrad.), wild buckwheat (POLCO, Polygonum convolvulus L.), Russian thistle (SASKR, Salsola kali L. ssp. ruthenica (Iljin) Soo), and field pennycress (THLAR, Thlaspi arvense L.). […] Common lambsquarters was evaluated only at 14 days after application. […] Results are the means of the four replicates."}, "[8]": {"system": "corn (ZEAMD)", "experiment": "Test 14 field trial, preemergence, growth as percent of control", "format": "in vivo, Zea mays ssp. indentata", "conditions": "1870 g a.i./ha", "text": "Corn seeds (hybrid ‘Pioneer 31G96 RR’) were planted in mid spring season, 3.8 cm deep in a clay loam soil having 2% organic matter and a pH of 6.6. Plots were 6.1 m long by 3.0 m wide with rows spaced 76 cm apart. Seeds were spaced 15 cm apart within the rows. The field was managed using conventional tillage practices. […] Yellow nutsedge was only evaluated 19 and 28 days after application, and ivyleaf morningglory could only be evaluated 28 days after application. […] Results are the means of the three replicates. This growth inhibition data was converted to results in the form of “plant growth as a percent of control plant growth” using the calculation “100 minus growth inhibition”. […] For “growth as a percent of control” data, Colby's Equation calculates the expected additive effect of herbicidal mixtures having two active ingredients as follows:\nGa+b=GaGb/100 • wherein Ga+b is the growth as a percent of control of plants treated with the mixture expected from additive contribution of the individual components, • Ga is the observed growth as a percent of control of plants treated with the first active ingredient at the same use rate as in the mixture, and • Gb is the observed growth as a percent of control of plants treated with the second active ingredient at the same use rate as in the mixture. For mixtures having three active ingredients, Colby's Equation to calculate the expected additive effect of herbicidal mixtures is as follows:\nGa+b+c=GaGbGc/10,000 • wherein Ga and Gb are as defined above and • Ga+b+c is the growth as a percent of control of plants treated with the mixture expected from additive contribution of the individual components, and • Gc is the observed growth as a percent of control of plants treated with the third active ingredient at the same use rate as in the mixture. When these two forms of Colby's Equation are used, if the observed effects on weeds are less than the expected values, the mixture is synergistic."}},
  "data": [
    {"compound": "COC(=O)c1nc(C2CC2)nc(N)c1Cl", "note": "[Compound 2, methyl 6-amino-5-chloro-2-cyclopropyl-4-pyrimidinecarboxylate]", "values": [
      {"measurement": "GALAP Obs (scale 0 to 100)", "setting": "[1]; Cpd 2 4 g a.i./ha", "value": 73},
      {"measurement": "GALAP Obs (scale 0 to 100)", "setting": "[1]; Cpd 2 8 g a.i./ha", "value": 75},
      {"measurement": "GALAP Obs (scale 0 to 100)", "setting": "[1]; Cpd 2 16 g a.i./ha", "value": 87},
      {"measurement": "ABUTH Obs (percent of control)", "setting": "[2]; Cpd 2 15 g a.i./ha, 14 DAA", "value": 70, "unit": "%"},
      {"measurement": "ABUTH Obs (percent of control)", "setting": "[2]; Cpd 2 15 g a.i./ha, 28 DAA", "value": 72, "unit": "%"},
      {"measurement": "ABUTH Obs (percent of control)", "setting": "[2]; Cpd 2 15 g a.i./ha, 56 DAA", "value": 62, "unit": "%"},
      {"measurement": "ABUTH Obs (percent of control)", "setting": "[2]; Cpd 2 30 g a.i./ha, 14 DAA", "value": 45, "unit": "%"},
      {"measurement": "ABUTH Obs (percent of control)", "setting": "[2]; Cpd 2 30 g a.i./ha, 28 DAA", "value": 53, "unit": "%"},
      {"measurement": "ABUTH Obs (percent of control)", "setting": "[2]; Cpd 2 30 g a.i./ha, 56 DAA", "value": 28, "unit": "%"},
      {"measurement": "ABUTH Obs (percent of control)", "setting": "[2]; Cpd 2 45 g a.i./ha, 14 DAA", "value": 37, "unit": "%"},
      {"measurement": "ABUTH Obs (percent of control)", "setting": "[2]; Cpd 2 45 g a.i./ha, 28 DAA", "value": 40, "unit": "%"},
      {"measurement": "ABUTH Obs (percent of control)", "setting": "[2]; Cpd 2 45 g a.i./ha, 56 DAA", "value": 20, "unit": "%"},
      {"measurement": "PAPRH Obs (scale 0 to 100)", "setting": "[3]; Cpd 2 4 g a.i./ha", "value": 62},
      {"measurement": "PAPRH Obs (scale 0 to 100)", "setting": "[3]; Cpd 2 8 g a.i./ha", "value": 72},
      {"measurement": "PAPRH Obs (scale 0 to 100)", "setting": "[3]; Cpd 2 16 g a.i./ha", "value": 75},
      {"measurement": "POLCO Obs (scale 0 to 100)", "setting": "[4]; Cpd 2 4 g a.i./ha", "value": 55},
      {"measurement": "POLCO Obs (scale 0 to 100)", "setting": "[4]; Cpd 2 8 g a.i./ha", "value": 60},
      {"measurement": "POLCO Obs (scale 0 to 100)", "setting": "[4]; Cpd 2 16 g a.i./ha", "value": 70},
      {"measurement": "TRZAW Obs", "setting": "[5]; 16 DAA, 15 g a.i./ha", "value": 2},
      {"measurement": "TRZAW Obs", "setting": "[5]; 16 DAA, 30 g a.i./ha", "value": 10},
      {"measurement": "TRZAW Obs", "setting": "[5]; 16 DAA, 45 g a.i./ha", "value": 17},
      {"measurement": "TRZAW Obs", "setting": "[5]; 28 DAA, 15 g a.i./ha", "value": 0},
      {"measurement": "TRZAW Obs", "setting": "[5]; 28 DAA, 30 g a.i./ha", "value": 12},
      {"measurement": "TRZAW Obs", "setting": "[5]; 28 DAA, 45 g a.i./ha", "value": 25},
      {"measurement": "TRZAW Obs", "setting": "[5]; 49 DAA, 15 g a.i./ha", "value": 3},
      {"measurement": "TRZAW Obs", "setting": "[5]; 49 DAA, 30 g a.i./ha", "value": 17},
      {"measurement": "TRZAW Obs", "setting": "[5]; 49 DAA, 45 g a.i./ha", "value": 35},
      {"measurement": "QUESS Obs", "setting": "[6]", "value": 33},
      {"measurement": "TRZAS Obs", "setting": "[7]; 14 DAA, Cpd 2 30 g a.i./ha alone or with clodinafop 56 or fenoxaprop 90", "value": 0},
      {"measurement": "TRZAS Obs", "setting": "[7]; 14 DAA, Cpd 2 60 g a.i./ha alone or with clodinafop 56 or fenoxaprop 90", "value": 0},
      {"measurement": "TRZAS Obs", "setting": "[7]; 35 DAA, Cpd 2 30 g a.i./ha alone or with clodinafop 56 or fenoxaprop 90", "value": 2},
      {"measurement": "TRZAS Obs", "setting": "[7]; 35 DAA, Cpd 2 60 g a.i./ha alone or with clodinafop 56 or fenoxaprop 90", "value": 6},
      {"measurement": "TRZAS Obs", "setting": "[7]; 55 DAA, Cpd 2 30 g a.i./ha alone or with clodinafop 56 or fenoxaprop 90", "value": 3},
      {"measurement": "TRZAS Obs", "setting": "[7]; 55 DAA, Cpd 2 60 g a.i./ha alone or with clodinafop 56 or fenoxaprop 90", "value": 11}
    ]},
    {"compound": "CCc1cccc(C)c1N(C(=O)CCl)[C@@H](C)COC", "note": "[S-Metolachlor, S-metolachlor, reference compound]", "values": [
      {"measurement": "Obs growth % of control", "setting": "[8]; 19 DAA", "value": 98, "unit": "%"},
      {"measurement": "Obs growth % of control", "setting": "[8]; 28 DAA", "value": 98, "unit": "%"},
      {"measurement": "Obs growth % of control", "setting": "[8]; 56 DAA", "value": 100, "unit": "%"}
    ]}
  ]
}
